Patent US5679638A, “Method for treating a tumor with a chemotherapeutic agent” (Biopure Corporation, priority 1993, dated 1997)

What was measured:
[1] = tested on: Lewis lung carcinoma; assay: Lewis lung carcinoma growth delay; format: in vivo, mouse (male C57BL); conditions: for Lewis lung carcinoma growth delay, Mean Days: NSAID days 4-18; for Increase of growth delay by addition of UPHS: drug + UPHS vs drug
Protocol: The Lewis lung tumor was carried in male C57BL mice (Taconic Laboratories, Germantown, N.Y.). For the experiments, 2×10^6 tumor cells prepared from a brei of several stock tumors were implanted subctaneously into the legs of male mice aged 8-10 weeks. […] Animals bearing Lewis lung tumors were treated daily with intraperitoneal Mino (10 mg/kg), Diflun (15 mg/kg) or Sulin (15 mg/kg) on days 4-18 following tumor implantation. When the tumors had reached a volume of approximately 100 mm^3 (day 7 after tumor cell implantation), cytotoxic therapy was initiated.
Therapy consisted of treatment with an antitumor alkylating agent, an antitumor antimetabolite, a non-steroidal anti-inflammatory drug (NSAID) and/or UPHS. […] CTX therapy consisted of three successive 150 mg/kg CTX doses administered by intraperitoneal injections on days 7, 9 and 11. BCNU therapy consisted of three successive 15 mg/Kg BCNU doses administered by intraperitoneal injections on days 7, 9 and 11. Therapy with the antimetabolite 5-fluorouracil(5-FU) consisted of 4 successive 40 mg/kg 5-FU doses administered by intraperitoneal injections daily on days 7 to 11. The 5-FU was purchased from Sigma Chemical Co., St. Louis, Mo. Fourteen doses of 10 mg/kg of NSAID were administered daily by intraperitoneal injections on days 4 to 18. UPHS was injected into the tail vein in 8 ml/kg doses daily on days 7-11.
The progress of each tumor was measured thrice weekly until it had reached a volume of 500 mm^3. Tumor growth delay was calculated as the number of days required for each treated tumor to reach a volume of 500 mm^3 as compared with untreated control tumors. Each treatment group comprised six animals and the experiment was repeated three times.
On the twentieth day after the subcutaneous tumor implantation, the delay in Lewis Lung Carcinoma tumor growth was evaluated. Tumor growth delay data is presented as the mean value ±SE calculated for the treatment group as compared with the control group.

[2] = tested on: subcutaneous 9L gliosarcoma; assay: Subcutaneous 9L gliosarcoma tumor growth delay; format: in vivo, rat (male Fischer 344); conditions: for Subcutaneous 9L Tumor Growth Delay, Mean Days: Table III, days to 500 mm^3 vs control (19.5 ± 0.5 days), CDDP 8 mg/kg day 7, BCNU 3 x 15, CTX or IFOS 3 x 100 mg/kg, UPHS 8 ml/kg; for Increase in tumor growth delay by prior administration of UPHS: UPHS + drug vs drug alone; for Effectiveness against subcutaneous 9L tumors: relative statement among BCNU, CTX, CDDP, IFOS
Protocol: (§1) The 9L gliosarcoma (9L) cells were obtained as a gift of 9L/SF gliosarcoma cells from Dr. Dennis Dean, University of California, San Francisco. These cells were maintained in culture in .varies.-MEM (Grand Island Biological Co., Grand Island, N.Y.) and supplemented with 10% fetal bovine serum (Sterile Systems, Inc., Logan, Utah) and with antibiotics. The 9L cells (4×10^4) in 10 μL of media without serum were implanted intracranially in male Fischer 344 rats (Taconic Farms, Germantown, N.Y.) weighing 200-250 gm on day 0. Each rat was anesthetized with sodium pentobarbital. A midline scalp incision was made and a hole was bored through the skull with 23 gauge needle at a point 2 mm lateral to the midline. The cell suspension was injected into the right frontal lobe at a depth of 3 mm from the dural surface. The needle was removed and the hole filled with dental cement. The scalp was sealed with a surgical clip. Two days later 9L cells (2×10^6) were implanted subcutaneously into the flank of each animal. When the tumors were approximately 100 mm^3 in volume, 7 days after tumor cell implantation, 8 ml/kg of UPHS was injected via the tail vein. After injecting the UPHS, administration of chemotherapeutic agents was initiated. […] BCNU therapy consisted of three 15 mg/kg BCNU doses administered by intraperitoneal injection days 7, 9 and 11. CTX and ifosfamide (IFOS) therapy consisted of three 100 mg/kg CTX or IFOS doses administered by intraperitoneal injection on days 7, 9 and 11. For the BCNU, CTX and IFOS therapies, UPHS was intravenously administered prior to each chemotherapeutic agent injection on days 7, 9 and 11. The IFOS was purchased from the Dana-Farber Cancer Institute. Survival of animals was monitored daily. Animals that were moribund or unable to reach food or water were killed by CO2 inhalation.
The progress of each subcutaneous tumor was measured 3 times/week until it reached a volume of 500 mm^3. Tumor growth delay was calculated as the number of days for each individual tumor to reach 500 mm^3 compared with untreated controls. Each treatment group had 4 animals and the experiment was repeated twice. Days of tumor growth delay are the mean ±SE for the treatment group compared with the control.

[3] = tested on: intracranial 9L gliosarcoma; assay: Life span of rats with intracranial 9L gliosarcoma; format: in vivo, rat (male Fischer 344); conditions: for % Increased from Control (life span) / Survival Days: Table II; for % Increased from Control (life span) / Increase in life span with UPHS prior to the drug therapy: vs untreated control; for Survival Days: control 26 ± 2.2 days, CDDP 8 mg/kg day 7, BCNU 3 x 15, CTX or IFOS 3 x 100 mg/kg days 7, 9, 11, UPHS 8 ml/kg; for Significance of increase in life span, drug alone: 25% or more is therapeutically significant; for Effectiveness against intracranial 9L tumors: relative statement among BCNU, CTX, CDDP, IFOS
Protocol: as §1
The effect of the treatments on the growth of the intracranial tumor was determined by the increase in life span of treated groups compared with the untreated controls. A percentage increase in life span of 25% or more is therapeutically significant.

[4] = WITH UPHS (8 ml/kg daily days 7-11), CDDP or PAM 10 mg/kg, CTX 3 x 150, BCNU 3 x 15, 5-FU 40 mg/kg
[5] = WITHOUT UPHS, CDDP or PAM 10 mg/kg day 7, CTX 3 x 150, BCNU 3 x 15 mg/kg days 7, 9, 11, 5-FU 40 mg/kg
[6] = intracranial (life span) and subcutaneous (growth delay) 9L tumors

Row | SMILES | Lewis lung carcinoma growth delay, Mean Days [1, 4] [days] | Lewis lung carcinoma growth delay, Mean Days [1, 5] [days] | Increase of growth delay by addition of UPHS [1] | Subcutaneous 9L Tumor Growth Delay, Mean Days [2] [days] | Increase in tumor growth delay by prior administration of UPHS [2] [fold] | Effectiveness against subcutaneous 9L tumors [2] | % Increased from Control (life span) [3] [%] | Survival Days [3] [days] | Increase in life span with UPHS prior to the drug therapy [3] [%] | Significance of increase in life span, drug alone [3] | Increase in therapeutic response upon addition of UPHS ([3]; rat, in vivo, sc) | Effectiveness against intracranial 9L tumors [3] | Effect of UPHS on tumor growth delay produced by drug ([2]; UPHS prior to single dose of CDDP) | Increase in therapeutic response upon addition of UPHS [3, 6] | Tumor growth delay relative to other drugs ([1]; vs CDDP, PAM, BCNU or 5-FU)
1 | O=NN(CCCl)C(=O)NCCCl [BCNU, N,N-bis(2-chloroethyl)-N-nitrosourea] | 5.3 ± 0.5 | 3.6 ± 0.4 | also enhanced, to a lesser degree | 5.8 ± 0.5 | 1.3 | least effective against subcutaneously growing 9L tumors | 22 | 31.6 | 38 | did not reach significance | improved to a greater degree, as determined by increase in life span, against the intracranial tumor than against the subcutaneous tumor | moderately effective against the intracranial 9L tumors |  |  | 
2 | N.N.[Cl][Pt][Cl] [CDDP, cis-diaminodichloroplatinum(II)] | 5.7 ± 0.4 | 4.5 ± 0.3 | also enhanced, to a lesser degree | 9.4 ± 0.8 |  | very effective against both subcutaneous and intracranial 9L tumors | 29 | 33.6 | 46 | significant increase in life span |  | very effective against both subcutaneous and intracranial 9L tumors | no substantial effect on the tumor growth delay | improved to a greater degree, as determined by increase in life span, against the intracranial tumor than against the subcutaneous tumor | 
3 | N[C@@H](Cc1ccc(N(CCCl)CCCl)cc1)C(=O)O [PAM, Melphalan] | 6.8 ± 0.4 | 2.7 ± 0.3 | more than two-fold |  |  |  |  |  |  |  |  |  |  |  | 
4 | O=P1(N(CCCl)CCCl)NCCCO1 (stereo not shown) [CTX, Cyclophosphamide] | 43.1 ± 2.9 | 21.5 ± 1.7 | more than two-fold | 9.1 ± 0.7 | 1.5 | very effective treatments for subcutaneously growing 9L tumors | 20 | 31.3 | 43 | did not reach significance |  | least effective treatments for intracranial 9L tumors |  | greatest increases in therapeutic response upon addition of UPHS | substantially longer than that resulting from CDDP, PAM, BCNU or 5-FU
